{"source": "paper PMC8063180", "about": "(Cell Reports. Physical Science, 2021)", "key": {"[1]": {"assay_type": "physicochemical", "details": "for Effect of polyphenols (EGCG, TA, RA) on critical soluble concentration: increasing inhibitor ratio, dose-dependent"}, "Dynamic light scattering": {"assay": "Dynamic light scattering", "assay_type": "physicochemical", "details": "pH 6.8, room temperature"}, "physchem": {"assay": "physchem", "assay_type": "physicochemical", "details": "for Fold lower critical concentration compared with AFA: at the highest measured temperature"}, "[2]": {"details": "aqueous solution; cited from earlier work"}, "[3]": {"details": "pH 6.8, Water solubility (critical soluble concentration), pure water, room temperature, pH 6.8"}, "[4]": {"details": "water, room temperature, pH 6.8"}}, "note": "Peptide text beside a SMILES is read from it.", "data": [{"smiles": "C[C@H](N)C(=O)N[C@@H](C)C(=O)N[C@@H](Cc1ccccc1)C(=O)O", "note": "[AAF] (H-Ala-Ala-Phe-OH)", "values": [{"measurement": "Effect of polyphenols (EGCG, TA, RA) on critical soluble concentration", "setting": "[1]", "result": "significant increase"}, {"measurement": "Fold increase of solubility by TA", "setting": "[1]; peptide:TA 1:2, versus no inhibitor", "result": 3, "unit": "fold"}, {"measurement": "DLS cluster size", "setting": "Dynamic light scattering; 100 mM in water", "result": "approximately 4,000 nm"}, {"measurement": "DLS cluster size", "setting": "Dynamic light scattering; above 40 mM in water", "result": "remained constant"}, {"measurement": "Fold lower critical concentration compared with AFA", "setting": "physchem", "result": "~6", "unit": "fold"}, {"measurement": "solubility at 2 min", "setting": "physchem; [3]", "result": 105, "unit": "mM"}]}, {"smiles": "C[C@H](N)C(=O)N[C@@H](Cc1ccccc1)C(=O)N[C@@H](C)C(=O)O", "note": "[AFA, Ala-Phe-Ala] (H-Ala-Phe-Ala-OH)", "values": [{"measurement": "Effect of inhibitors (EGCG, TA, RA) on solubility", "setting": "[1]; molar ratios 1:0.1–1:0.3", "result": "unable to significantly alter"}, {"measurement": "DLS cluster size", "setting": "Dynamic light scattering; 100 mM in water", "result": "persisted"}, {"measurement": "DLS cluster size", "setting": "Dynamic light scattering; above 40 mM in water", "result": "remained constant"}, {"measurement": "Reported critical concentration", "setting": "[2]", "result": "up to 10 mM"}, {"measurement": "solubility", "setting": "physchem; Water solubility, water, 70°C", "result": 702, "unit": "mM"}, {"measurement": "solubility", "setting": "physchem; Water solubility, water, 90°C", "result": 720, "unit": "mM"}, {"measurement": "solubility", "setting": "physchem; Water solubility, water, near the boiling point of water", "result": 710, "unit": "mM"}, {"measurement": "Minimal critical concentration", "setting": "physchem; around pH 6–7, room temperature", "result": 668, "unit": "mM"}, {"measurement": "solubility", "setting": "physchem; [3]", "result": 672, "unit": "mM"}, {"measurement": "Water solubility", "setting": "physchem; pH approaching the pKa value of either terminus, room temperature", "result": 672, "unit": "mM"}, {"measurement": "Fold higher solubility compared with AAF", "setting": "physchem; [4]", "result": 6, "unit": "fold"}, {"measurement": "Fold higher solubility compared with FAA", "setting": "physchem; [4]", "result": 15, "unit": "fold"}]}, {"smiles": "C[C@H](N)C(=O)N[C@@H](Cc1ccccc1)C(=O)N[C@@H](Cc1ccccc1)C(=O)O", "note": "[AFF, reference compound] (H-Ala-Phe-Phe-OH)", "values": [{"measurement": "solubility", "setting": "physchem; [3]", "result": 98.3, "unit": "mM"}, {"measurement": "Fold higher solubility compared with GFF", "setting": "physchem; [4]", "result": 6, "unit": "fold"}]}, {"smiles": "C[C@H](NC(=O)[C@H](C)NC(=O)[C@@H](N)Cc1ccccc1)C(=O)O", "note": "[FAA] (H-Phe-Ala-Ala-OH)", "values": [{"measurement": "Effect of polyphenols (EGCG, TA, RA) on critical soluble concentration", "setting": "[1]", "result": "significant increase"}, {"measurement": "DLS cluster size", "setting": "Dynamic light scattering; above 40 mM in water", "result": "approximately 2000 nm"}, {"measurement": "Fold lower critical concentration compared with AFA", "setting": "physchem", "result": "~15", "unit": "fold"}, {"measurement": "solubility", "setting": "physchem; [3]", "result": 42, "unit": "mM"}]}, {"smiles": "N[C@@H](Cc1ccccc1)C(=O)N[C@@H](Cc1ccccc1)C(=O)O", "note": "[FF, reference compound] (H-Phe-Phe-OH)", "values": [{"measurement": "solubility", "setting": "physchem; [3]", "result": 8.1, "unit": "mM"}]}, {"smiles": "N[C@@H](Cc1ccccc1)C(=O)N[C@@H](Cc1ccccc1)C(=O)N[C@@H](Cc1ccccc1)C(=O)O", "note": "[FFF, reference compound] (H-Phe-Phe-Phe-OH)", "values": [{"measurement": "solubility", "setting": "physchem; [3]", "result": 0.5, "unit": "mM"}]}, {"smiles": "CC(C)C[C@H](NC(=O)[C@@H](N)Cc1ccccc1)C(=O)O", "note": "[FL, reference compound] (H-Phe-Leu-OH)", "values": [{"measurement": "solubility", "setting": "physchem; [3]", "result": 28.3, "unit": "mM"}]}, {"smiles": "NCC(=O)N[C@@H](Cc1ccccc1)C(=O)N[C@@H](Cc1ccccc1)C(=O)O", "note": "[GFF, reference compound] (H-Gly-Phe-Phe-OH)", "values": [{"measurement": "solubility", "setting": "physchem; [3]", "result": 14.5, "unit": "mM"}]}, {"smiles": "CC(C)C[C@H](N)C(=O)N[C@@H](Cc1ccccc1)C(=O)O", "note": "[LF, reference compound] (H-Leu-Phe-OH)", "values": [{"measurement": "solubility", "setting": "physchem; [3]", "result": 19.4, "unit": "mM"}]}, {"smiles": "O=C(O)[C@H](Cc1ccccc1)NC(=O)[C@H](Cc1ccccc1)NC(=O)[C@@H]1CCCN1", "note": "[PFF, reference compound] (H-Pro-Phe-Phe-OH)", "values": [{"measurement": "solubility", "setting": "physchem; [3]", "result": 2.6, "unit": "mM"}]}]}
